Where a SMILES comes first, the peptide text is derived from it. Bridges are numbered along the chain shown (N, C = ends).
Legend:
hNaV1.1 = hNaV1.1 (Homo sapiens, UniProt P35498); test: Two-electrode voltage-clamp on Xenopus laevis oocytes expressing NaV1.1
rNaV1.2 = rNaV1.2 (Rattus norvegicus, UniProt P04775); test: Two-electrode voltage-clamp on Xenopus laevis oocytes expressing NaV1.2; conditions: for inhibition at 100 µM: read-out: Maximum % inhibition NaV1.2, peptide at 100 μM
rNaV1.3 = rNaV1.3 (Rattus norvegicus, UniProt P08104); test: Two-electrode voltage-clamp on Xenopus laevis oocytes expressing NaV1.3
rNaV1.4 = rNaV1.4 (Rattus norvegicus, UniProt P15390); test: Two-electrode voltage-clamp on Xenopus laevis oocytes expressing NaV1.4; conditions: for inhibition at 100 µM: read-out: Maximum % inhibition NaV1.4, peptide at 100 μM
hNaV1.5 = hNaV1.5 (Homo sapiens, UniProt Q14524); test: Two-electrode voltage-clamp on Xenopus laevis oocytes expressing NaV1.5; conditions: for inhibition at 100 µM: read-out: Maximum % inhibition NaV1.5
mNaV1.6 = mNaV1.6 (Mus musculus, UniProt Q9WTU3); test: Two-electrode voltage-clamp on Xenopus laevis oocytes expressing NaV1.6; conditions: for inhibition at 100 µM: read-out: Maximum % inhibition NaV1.6, peptide at 100 μM
rNaV1.7 = rNaV1.7 (Rattus norvegicus, UniProt O08562); test: Two-electrode voltage-clamp on Xenopus laevis oocytes expressing NaV1.7
rNaV1.8 = rNaV1.8 (Rattus norvegicus, UniProt Q62968); test: Two-electrode voltage-clamp on Xenopus laevis oocytes expressing NaV1.8; conditions: for inhibition at 100 µM: read-out: Maximum % inhibition NaV1.8
[1] = tested on: NaV1.2, NaV1.4, NaV1.5 and NaV1.6; conditions: 100 μM
inflammatory pain models = conditions: in vivo; cited from earlier work

Sequence of mNaV1.6 (Q9WTU3 whole entry): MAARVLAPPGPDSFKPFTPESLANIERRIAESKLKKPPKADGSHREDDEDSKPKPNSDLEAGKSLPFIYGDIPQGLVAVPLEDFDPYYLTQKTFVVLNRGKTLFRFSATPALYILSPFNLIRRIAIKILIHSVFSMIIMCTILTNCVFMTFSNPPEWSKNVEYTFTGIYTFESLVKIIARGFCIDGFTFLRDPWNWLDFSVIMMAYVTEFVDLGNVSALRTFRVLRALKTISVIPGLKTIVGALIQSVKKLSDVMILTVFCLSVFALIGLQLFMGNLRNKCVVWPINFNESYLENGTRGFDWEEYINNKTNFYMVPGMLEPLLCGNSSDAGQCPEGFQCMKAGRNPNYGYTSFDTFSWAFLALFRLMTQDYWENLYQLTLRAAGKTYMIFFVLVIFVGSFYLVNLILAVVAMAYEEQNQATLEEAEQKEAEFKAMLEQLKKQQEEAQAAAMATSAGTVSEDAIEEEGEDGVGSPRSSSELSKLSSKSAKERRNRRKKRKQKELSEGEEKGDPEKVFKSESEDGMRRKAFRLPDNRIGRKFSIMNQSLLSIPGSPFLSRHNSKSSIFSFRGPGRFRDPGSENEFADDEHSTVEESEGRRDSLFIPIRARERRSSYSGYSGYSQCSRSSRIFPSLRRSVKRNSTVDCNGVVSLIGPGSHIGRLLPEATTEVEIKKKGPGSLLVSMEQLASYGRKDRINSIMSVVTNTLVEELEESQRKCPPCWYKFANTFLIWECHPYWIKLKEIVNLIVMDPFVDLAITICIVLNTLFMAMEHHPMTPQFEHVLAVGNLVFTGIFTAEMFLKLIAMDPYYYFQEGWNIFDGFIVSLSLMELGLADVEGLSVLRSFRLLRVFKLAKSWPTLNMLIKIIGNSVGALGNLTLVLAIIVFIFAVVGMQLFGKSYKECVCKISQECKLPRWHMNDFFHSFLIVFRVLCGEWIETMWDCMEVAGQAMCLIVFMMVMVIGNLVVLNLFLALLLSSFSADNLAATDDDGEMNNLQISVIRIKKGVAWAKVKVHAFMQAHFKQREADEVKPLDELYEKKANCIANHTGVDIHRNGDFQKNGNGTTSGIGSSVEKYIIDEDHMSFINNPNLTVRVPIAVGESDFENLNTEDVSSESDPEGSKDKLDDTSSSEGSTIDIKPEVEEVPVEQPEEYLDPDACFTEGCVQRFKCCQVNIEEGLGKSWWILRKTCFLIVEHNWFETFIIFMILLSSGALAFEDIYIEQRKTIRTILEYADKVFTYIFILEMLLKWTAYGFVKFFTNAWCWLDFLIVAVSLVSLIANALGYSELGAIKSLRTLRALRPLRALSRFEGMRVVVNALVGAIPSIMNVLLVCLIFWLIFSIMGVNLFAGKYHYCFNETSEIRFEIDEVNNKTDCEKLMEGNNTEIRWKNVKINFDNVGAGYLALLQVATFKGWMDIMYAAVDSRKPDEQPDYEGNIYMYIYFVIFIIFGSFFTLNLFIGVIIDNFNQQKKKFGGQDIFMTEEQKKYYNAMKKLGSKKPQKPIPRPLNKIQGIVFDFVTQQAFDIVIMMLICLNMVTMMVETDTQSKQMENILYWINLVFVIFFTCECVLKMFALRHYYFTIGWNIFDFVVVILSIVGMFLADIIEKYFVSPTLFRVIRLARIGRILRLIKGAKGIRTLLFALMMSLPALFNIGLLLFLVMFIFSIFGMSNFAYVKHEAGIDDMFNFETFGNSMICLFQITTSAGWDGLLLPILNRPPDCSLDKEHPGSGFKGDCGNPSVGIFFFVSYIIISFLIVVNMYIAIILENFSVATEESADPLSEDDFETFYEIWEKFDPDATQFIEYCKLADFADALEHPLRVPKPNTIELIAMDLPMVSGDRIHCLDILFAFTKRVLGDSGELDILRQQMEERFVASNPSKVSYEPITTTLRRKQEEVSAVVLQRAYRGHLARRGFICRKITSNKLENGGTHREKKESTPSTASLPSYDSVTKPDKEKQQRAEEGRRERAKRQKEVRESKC
Sequence of rNaV1.7 (O08562 whole entry): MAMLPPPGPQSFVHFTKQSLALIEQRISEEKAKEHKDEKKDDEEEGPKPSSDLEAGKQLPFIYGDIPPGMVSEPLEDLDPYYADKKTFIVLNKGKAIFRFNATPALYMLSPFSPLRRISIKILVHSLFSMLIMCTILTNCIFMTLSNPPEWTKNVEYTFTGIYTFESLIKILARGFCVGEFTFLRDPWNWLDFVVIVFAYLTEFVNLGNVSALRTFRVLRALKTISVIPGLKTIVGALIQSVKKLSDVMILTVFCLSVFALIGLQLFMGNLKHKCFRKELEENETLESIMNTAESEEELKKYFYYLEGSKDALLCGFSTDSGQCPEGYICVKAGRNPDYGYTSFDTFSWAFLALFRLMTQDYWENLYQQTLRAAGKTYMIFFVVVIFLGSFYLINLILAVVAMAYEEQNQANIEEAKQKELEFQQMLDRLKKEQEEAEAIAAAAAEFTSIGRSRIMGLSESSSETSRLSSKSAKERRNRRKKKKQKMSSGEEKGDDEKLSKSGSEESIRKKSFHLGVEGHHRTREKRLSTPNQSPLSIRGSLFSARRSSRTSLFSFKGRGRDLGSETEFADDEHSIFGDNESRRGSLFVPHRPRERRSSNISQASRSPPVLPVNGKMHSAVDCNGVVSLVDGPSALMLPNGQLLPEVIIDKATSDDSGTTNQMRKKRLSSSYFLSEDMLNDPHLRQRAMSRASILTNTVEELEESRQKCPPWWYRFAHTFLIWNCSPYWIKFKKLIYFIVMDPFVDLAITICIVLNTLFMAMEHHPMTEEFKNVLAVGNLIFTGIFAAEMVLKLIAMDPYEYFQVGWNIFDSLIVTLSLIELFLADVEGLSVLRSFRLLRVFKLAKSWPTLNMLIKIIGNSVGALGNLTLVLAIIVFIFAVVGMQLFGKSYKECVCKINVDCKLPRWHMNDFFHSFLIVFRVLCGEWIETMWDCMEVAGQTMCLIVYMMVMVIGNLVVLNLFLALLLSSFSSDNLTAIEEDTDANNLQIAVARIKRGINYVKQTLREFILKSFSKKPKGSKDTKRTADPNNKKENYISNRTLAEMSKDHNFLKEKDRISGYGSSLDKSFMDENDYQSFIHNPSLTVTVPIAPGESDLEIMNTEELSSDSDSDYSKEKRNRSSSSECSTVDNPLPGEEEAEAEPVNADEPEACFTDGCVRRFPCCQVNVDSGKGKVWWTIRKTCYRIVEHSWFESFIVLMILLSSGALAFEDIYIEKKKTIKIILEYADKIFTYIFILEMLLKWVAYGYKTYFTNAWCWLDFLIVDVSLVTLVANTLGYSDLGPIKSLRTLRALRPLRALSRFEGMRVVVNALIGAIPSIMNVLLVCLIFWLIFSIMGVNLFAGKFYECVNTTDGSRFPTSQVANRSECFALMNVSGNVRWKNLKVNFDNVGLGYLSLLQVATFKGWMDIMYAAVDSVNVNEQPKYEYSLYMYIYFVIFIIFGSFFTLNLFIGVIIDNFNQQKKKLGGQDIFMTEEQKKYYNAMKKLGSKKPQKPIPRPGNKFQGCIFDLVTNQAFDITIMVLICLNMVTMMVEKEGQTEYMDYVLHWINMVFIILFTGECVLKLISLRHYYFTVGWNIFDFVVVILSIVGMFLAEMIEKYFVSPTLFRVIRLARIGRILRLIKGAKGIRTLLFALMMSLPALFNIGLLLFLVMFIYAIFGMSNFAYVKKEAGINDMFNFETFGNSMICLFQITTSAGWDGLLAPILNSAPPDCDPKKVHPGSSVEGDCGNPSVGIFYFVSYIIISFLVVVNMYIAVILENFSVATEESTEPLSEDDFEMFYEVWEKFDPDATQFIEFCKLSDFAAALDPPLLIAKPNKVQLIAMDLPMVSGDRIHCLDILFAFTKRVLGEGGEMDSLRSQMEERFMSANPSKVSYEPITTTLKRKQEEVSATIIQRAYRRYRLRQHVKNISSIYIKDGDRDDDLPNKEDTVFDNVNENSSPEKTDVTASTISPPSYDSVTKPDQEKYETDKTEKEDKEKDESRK
Sequence of rNaV1.7 (Q00954 19-218 partner): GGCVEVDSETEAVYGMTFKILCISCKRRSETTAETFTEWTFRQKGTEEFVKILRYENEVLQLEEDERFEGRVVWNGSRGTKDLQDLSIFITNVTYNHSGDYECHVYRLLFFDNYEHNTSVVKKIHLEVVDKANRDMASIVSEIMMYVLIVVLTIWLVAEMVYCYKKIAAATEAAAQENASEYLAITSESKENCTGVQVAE

| Molecule | IC50 (hNaV1.1) | IC50 (rNaV1.2) | inhibition at 100 µM (rNaV1.2) | IC50 (rNaV1.3) | IC50 (rNaV1.4) | inhibition at 100 µM (rNaV1.4) | IC50 (hNaV1.5) | inhibition at 100 µM (hNaV1.5) | IC50 (mNaV1.6) | inhibition at 100 µM (mNaV1.6) | IC50 (rNaV1.7) | IC50 (rNaV1.8) | inhibition at 100 µM (rNaV1.8) | % inhibition, range across NaV1.2, NaV1.4, NaV1.5 and NaV1.6 [1] | analgesic activity in inflammatory pain models (inflammatory pain models) |
| --- | --- | --- | --- | --- | --- | --- | --- | --- | --- | --- | --- | --- | --- | --- | --- |
| C[C@@H]1NC(=O)[C@H](Cc2c[nH]c3ccccc23)NC(=O)[C@H](CCCNC(=N)N)NC(=O)[C@H](CCCNC(=N)N)NC(=O)[C@@H](N)CSSC[C@@H](C(N)=O)NC(=O)[C@H](CCCNC(=N)N)NC(=O)[C@H](CC(N)=O)NC(=O)[C@H](Cc2ccc(O)cc2)NC(=O)[C@H](CCCNC(=N)N)NC1=O [PnCS1[W7Y], CRRWARYNRC ^*] (H-CRRWARYNRC-NH2; disulfide 1-10) | 2200 ± 400 nM | 7400 ± 4200 nM | 76% | 4100 ± 800 nM | 7800 ± 3300 nM | 73% | 11700 ± 4100 nM | 75% | 700 ± 300 nM | 93% | 8200 ± 300 nM | > 100000 nM | 0% | 73–93% | – |
| C[C@@H]1NC(=O)[C@H](Cc2ccc(O)cc2)NC(=O)[C@H](CCCNC(=N)N)NC(=O)[C@H](CCCNC(=N)N)NC(=O)[C@@H](N)CSSC[C@@H](C(N)=O)NC(=O)[C@H](CCCNC(=N)N)NC(=O)[C@H](CC(N)=O)NC(=O)[C@H](Cc2c[nH]c3ccccc23)NC(=O)[C@H](CCCNC(=N)N)NC1=O [PnCS1[W4Y], CRRYARWNRC ^*] (H-CRRYARWNRC-NH2; disulfide 1-10) | – | > 100000 nM | 39% | – | > 100000 nM | 33% | > 100000 nM | 43% | > 100000 nM | 42% | – | > 100000 nM | 0% | 33–43% | – |
| μ-Conotoxin KIIIA [μ-KIIIA] | – | – | – | – | – | – | – | – | – | – | – | – | – | – | analgesic in inflammatory pain models without motor impairment |
| C[C@@H]1NC(=O)[C@H](CCCCN)NC(=O)[C@H](CCCNC(=N)N)NC(=O)[C@H](CCCNC(=N)N)NC(=O)[C@@H](N)CSSC[C@@H](C(N)=O)NC(=O)[C@H](CCCNC(=N)N)NC(=O)[C@H](CC(N)=O)NC(=O)[C@H](Cc2c[nH]c3ccccc23)NC(=O)[C@H](CCCNC(=N)N)NC1=O [PnCS1[W4K], CRRKARWNRC ^*] (H-CRRKARWNRC-NH2; disulfide 1-10) | 400 ± 200 nM | 500 ± 400 nM | 75% | 1300 ± 400 nM | 700 ± 400 nM | 94% | 2700 ± 500 nM | 89% | 700 ± 400 nM | 92% | 7400 ± 500 nM | > 100000 nM | 0% | – | – |
| C[C@@H]1NC(=O)[C@H](Cc2c[nH]c3ccccc23)NC(=O)[C@H](CCCNC(=N)N)NC(=O)[C@H](CCCNC(=N)N)NC(=O)[C@@H](N)CSSC[C@@H](C(N)=O)NC(=O)[C@H](CCCNC(=N)N)NC(=O)[C@H](CC(N)=O)NC(=O)[C@H](Cc2c[nH]c3ccccc23)NC(=O)[C@H](CCCNC(=N)N)NC1=O [PnCS1, CRRWARWNRC ^*] (H-CRRWARWNRC-NH2; disulfide 1-10) | 800 ± 300 nM | 1000 ± 300 nM | 97% | 1100 ± 400 nM | 600 ± 300 nM | 94% | 2800 ± 500 nM | 94% | 700 ± 300 nM | 96% | 900 ± 200 nM | > 100000 nM | 0% | – | – |

— article PMC9116130 (Biochemical pharmacology, 2020)
